In ChEMBL document CHEMBL1201862, “PubChem BioAssay data set” (2004):
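In this assay, cells in 96-well plates receive the compound at five concentrations for 48 hours. Endpoints are linearly interpolated between the surrounding concentrations. GI50 marks 50% less growth.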 The source made the active and inactive calls. No stated cut-off is given here; in the data, active = GI50 up to about 1.1 µM and inactive = higher.

Columns and labels:
Test in all cases: NCI tumour cell line growth inhibition, 48 h
[1] = tested on: 786-0
[2] = tested on: A498
[3] = tested on: A549
[4] = tested on: ACHN
[5] = tested on: BT-549
[6] = tested on: CAKI-1
[7] = tested on: CCRF-CEM
[8] = tested on: COLO 205
[9] = tested on: DU-145
[10] = tested on: EKVX
[11] = tested on: HCC 2998
[12] = tested on: HCT-116
[13] = tested on: HCT-15
[14] = tested on: HL-60
[15] = tested on: HOP-62
[16] = tested on: HOP-92
[17] = tested on: HT-29
[18] = tested on: IGROV-1
[19] = tested on: K562
[20] = tested on: KM12
[21] = tested on: LOX IMVI
[22] = tested on: M14
[23] = tested on: MCF7
[24] = tested on: MDA-MB-231
[25] = tested on: MDA-MB-435
[26] = tested on: MDA-N
[27] = tested on: MOLT-4
[28] = tested on: Malme-3M
[29] = tested on: NCI-H226
[30] = tested on: NCI-H23
[31] = tested on: NCI-H460
[32] = tested on: NCI-H522
[33] = tested on: NCI/ADR-RES
[34] = tested on: OVCAR-3
[35] = tested on: OVCAR-4
[36] = tested on: OVCAR-5
[37] = tested on: OVCAR-8
[38] = tested on: PC-3
[39] = tested on: RXF 393
[40] = tested on: SF-268
[41] = tested on: SF-295
[42] = tested on: SF-539
[43] = tested on: SK-MEL-28
[44] = tested on: SK-MEL-2
[45] = tested on: SK-MEL-5
[46] = tested on: SK-OV-3
[47] = tested on: SN12C
[48] = tested on: SNB-19
[49] = tested on: SNB-75
[50] = tested on: SW-620
[51] = tested on: TK-10
[52] = tested on: U-251
[53] = tested on: UACC-257
[54] = tested on: UO-31
[55] = tested on: RPMI-8226
[56] = tested on: SR
[57] = tested on: UACC-62
[58] = tested on: Hs-578T

For COC(=O)C1=CC2C(=O)c3ccccc3C1(c1ccccc1)N2C1CCCCC1 (configuration not stated), the GI50 [1] was > 100 µM (inactive), the GI50 [2] was 26.7 µM (inactive) and the GI50 [3] was 20 µM (inactive). For the same molecule, the GI50 [4] was 16.2 µM (inactive), the GI50 [5] was 22.6 µM (inactive) and the GI50 [6] was 20.5 µM (inactive). For the same molecule, the GI50 [7] was 15.1 µM (inactive), the GI50 [8] was 13.1 µM (inactive) and the GI50 [9] was 27 µM (inactive). For the same molecule, the GI50 [10] was 34.9 µM (inactive), the GI50 [11] was 3.15 µM (inactive) and the GI50 [12] was 25.1 µM (inactive). The GI50 [13] was 27 µM, the GI50 [14] was 11.6 µM (inactive) and the GI50 [15] was 16.7 µM (inactive). The GI50 [16] was 22.6 µM (inactive), the GI50 [17] was 14.8 µM (inactive) and the GI50 [18] was 20.1 µM (inactive). The GI50 [19] was 4.63 µM (inactive), the GI50 [20] was 14.3 µM (inactive) and the GI50 [21] was 15.5 µM (inactive). For the same molecule, the GI50 [22] was 20 µM (inactive), the GI50 [23] was 15.6 µM (inactive) and the GI50 [24] was 17 µM (inactive). The GI50 [25] was 16.9 µM (inactive), the GI50 [26] was 23.7 µM (inactive) and the GI50 [27] was 7.55 µM (inactive). The GI50 [28] was 22.6 µM (inactive), the GI50 [29] was 24.7 µM (inactive) and the GI50 [30] was 18.7 µM (inactive). The GI50 [31] was 14.8 µM (inactive), the GI50 [32] was 27.9 µM (inactive) and the GI50 [33] was 27.9 µM (inactive). The GI50 [34] was 23.6 µM (inactive), the GI50 [35] was 17.1 µM (inactive) and the GI50 [36] was 32.3 µM (inactive). The GI50 [37] was 27 µM (inactive), the GI50 [38] was 9.62 µM (inactive) and the GI50 [39] was 7.87 µM (inactive). For the same molecule, the GI50 [40] was 27.2 µM (inactive), the GI50 [41] was 16 µM (inactive) and the GI50 [42] was 20.6 µM (inactive). The GI50 [43] was 17.6 µM (inactive), the GI50 [44] was 12.3 µM (inactive) and the GI50 [45] was 10.1 µM (inactive). The GI50 [46] was 31 µM (inactive), the GI50 [47] was 24 µM (inactive) and the GI50 [48] was 39.9 µM (inactive). For the same molecule, the GI50 [49] was 35.1 µM (inactive), the GI50 [50] was 27.2 µM (inactive) and the GI50 [51] was 30.1 µM (inactive). The GI50 [52] was 16.6 µM (inactive), the GI50 [53] was 12.4 µM (inactive) and the GI50 [54] was 15.1 µM (inactive).

With N#C/C(=C\c1cc(Cl)cc(Cl)c1)c1ccccn1 the GI50 [1] was 21.5 µM (inactive), the GI50 [2] was 0.757 µM (active) and the GI50 [3] was 18.9 µM (inactive). For the same molecule, the GI50 [4] was 64.1 µM (inactive), the GI50 [5] was 4.71 µM (inactive) and the GI50 [6] was 13.6 µM (inactive). The GI50 [7] was 3.63 µM (inactive), the GI50 [8] was 31.8 µM (inactive) and the GI50 [9] was 70.6 µM (inactive). For the same molecule, the GI50 [10] was 3.46 µM (inactive), the GI50 [11] was 31 µM (inactive) and the GI50 [12] was 34.3 µM (inactive). The GI50 [13] was 4.75 µM, the GI50 [14] was 6.27 µM (inactive) and the GI50 [15] was 20 µM (inactive). For the same molecule, the GI50 [17] was 18.2 µM (inactive), the GI50 [18] was 12.4 µM (inactive) and the GI50 [19] was 3.95 µM (inactive). The GI50 [20] was 9.59 µM (inactive), the GI50 [22] was 35.5 µM (inactive) and the GI50 [23] was 5.61 µM (inactive). The GI50 [26] was 10.1 µM (inactive), the GI50 [27] was 5.14 µM (inactive) and the GI50 [28] was > 100 µM (inactive). For the same molecule, the GI50 [29] was 5.47 µM (inactive), the GI50 [30] was 6.35 µM (inactive) and the GI50 [31] was 7.83 µM (inactive). For the same molecule, the GI50 [32] was 9.44 µM (inactive), the GI50 [33] was 3.93 µM (inactive) and the GI50 [34] was 26.1 µM (inactive). The GI50 [35] was 53 µM (inactive), the GI50 [36] was > 100 µM (inactive) and the GI50 [37] was 18 µM (inactive). The GI50 [38] was 11.3 µM (inactive), the GI50 [55] was > 100 µM (inactive) and the GI50 [39] was 5.11 µM (inactive). For the same molecule, the GI50 [40] was 27.7 µM (inactive), the GI50 [41] was 10.5 µM (inactive) and the GI50 [42] was 19.1 µM (inactive). The GI50 [43] was 8.63 µM (inactive), the GI50 [44] was 92 µM (inactive) and the GI50 [45] was 8.51 µM (inactive). For the same molecule, the GI50 [46] was 4.52 µM (inactive), the GI50 [47] was > 100 µM (inactive) and the GI50 [48] was > 100 µM (inactive). For the same molecule, the GI50 [49] was 5.55 µM (inactive), the GI50 [56] was 6.27 µM (inactive) and the GI50 [50] was 15.6 µM (inactive). For the same molecule, the GI50 [51] was 58.5 µM (inactive), the GI50 [52] was 7.94 µM (inactive) and the GI50 [53] was 82.8 µM (inactive). The GI50 [57] was 12 µM (inactive) and the GI50 [54] was 43.8 µM (inactive).

With O=C(O)C(Cc1ccc(O)cn1)NC(=O)C(F)(F)F (configuration not stated) the GI50 [1] was > 100 µM (inactive), the GI50 [2] was > 100 µM (inactive) and the GI50 [3] was > 100 µM (inactive). The GI50 [4] was > 100 µM (inactive), the GI50 [5] was > 100 µM (inactive) and the GI50 [6] was > 100 µM (inactive). For the same molecule, the GI50 [7] was > 100 µM (inactive), the GI50 [8] was > 100 µM (inactive) and the GI50 [9] was > 100 µM (inactive). The GI50 [10] was > 100 µM (inactive), the GI50 [11] was > 100 µM (inactive) and the GI50 [12] was > 100 µM (inactive). For the same molecule, the GI50 [13] was greater than 100 µM, the GI50 [14] was > 100 µM (inactive) and the GI50 [15] was > 100 µM (inactive). For the same molecule, the GI50 [17] was > 100 µM (inactive), the GI50 [58] was > 100 µM (inactive) and the GI50 [18] was > 100 µM (inactive). The GI50 [19] was > 100 µM (inactive), the GI50 [20] was > 100 µM (inactive) and the GI50 [21] was > 100 µM (inactive). For the same molecule, the GI50 [23] was > 100 µM (inactive), the GI50 [24] was > 100 µM (inactive) and the GI50 [25] was > 100 µM (inactive). The GI50 [26] was > 100 µM (inactive), the GI50 [28] was > 100 µM (inactive) and the GI50 [29] was > 100 µM (inactive). For the same molecule, the GI50 [30] was > 100 µM (inactive), the GI50 [31] was > 100 µM (inactive) and the GI50 [32] was > 100 µM (inactive). For the same molecule, the GI50 [33] was > 100 µM (inactive), the GI50 [34] was > 100 µM (inactive) and the GI50 [36] was > 100 µM (inactive). For the same molecule, the GI50 [37] was > 100 µM (inactive), the GI50 [38] was > 100 µM (inactive) and the GI50 [55] was > 100 µM (inactive). The GI50 [39] was > 100 µM (inactive), the GI50 [40] was > 100 µM (inactive) and the GI50 [41] was > 100 µM (inactive). For the same molecule, the GI50 [42] was > 100 µM (inactive), the GI50 [43] was > 100 µM (inactive) and the GI50 [45] was > 100 µM (inactive). The GI50 [47] was > 100 µM (inactive), the GI50 [48] was > 100 µM (inactive) and the GI50 [56] was > 100 µM (inactive). The GI50 [50] was > 100 µM (inactive), the GI50 [51] was > 100 µM (inactive) and the GI50 [52] was > 100 µM (inactive). For the same molecule, the GI50 [53] was > 100 µM (inactive) and the GI50 [54] was > 100 µM (inactive).
